According to the supplement of paper PMC10331698:
± gives the standard deviation of the averaged measurements.

Columns and labels:
Assay in all cases: level (log10 ratio to DMSO vehicle control); higher = higher biomarker level / cell amount than vehicle control
[1] = compound: O=S(=O)(O)CCC(F)(F)C(F)(F)C(F)(F)C(F)(F)C(F)(F)C(F)(F)C(F)(F)C(F)(F)F [8:2 Fluorotelomer sulfonic acid] (in DMSO)
Experimental: (§1)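 BioMAP Diversity Plus panel of 12 human primary cell co-culture systems (3C, 4H, LPS, SAg, BT, BF4T, BE3C, CASM3C, HDF3CGF, KF3CT, MyoF, Mphg). Compounds were added 1 h before stimulation and left for 24 h (MyoF 48 h; BT 72 h for soluble read-outs or 6 d for IgG). Biomarkers were read by ELISA, cytotoxicity by SRB, PBMC viability and proliferation by Alamar Blue. Each well value was divided by the mean of 8 DMSO control wells on the same plate and log10 transformed; duplicate blinded samples were tested at 4 concentrations.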

[2] = compound: O=C(O)C(F)(F)C(F)(F)C(F)(F)C(F)(F)C(=O)O [Octafluoroadipic acid] (in DMSO)
Experimental: as §1

[3] = compound: O=C(O)C(F)(F)C(F)(F)C(F)(F)C(F)(F)C(F)(F)C(F)(F)C(F)(F)C(F)(F)F [Perfluorononanoic acid] (in DMSO)
Experimental: as §1

[4] = compound: O=C(O)C(F)(F)C(F)(F)C(F)(F)C(F)(F)C(F)(F)C(F)(F)C(F)(F)C(F)(F)C(F)(F)C(F)(F)F [Perfluoroundecanoic acid] (in DMSO); details: 6700 nM
Experimental: as §1

[5] = compound: O=C(O)C=C(C(F)(F)F)C(F)(F)F [3,3-Bis(trifluoromethyl)-2-propenoic acid] (in DMSO)
Experimental: as §1

[6] = compound: OCC(F)(F)OC(F)(F)C(F)(F)OC(F)(F)C(F)(F)OC(F)(F)CO [1H,1H,11H,11H-Perfluorotetraethylene glycol] (in DMSO)
Experimental: as §1

[7] = compound: O=C(O)C(F)(F)C(F)(F)C(F)(F)OC(F)(F)F [Perfluoro(4-methoxybutanoic) acid] (in DMSO)
Experimental: as §1

Test System | level (log10) ([1]; 6700 nM) | level (log10) ([1]; 20000 nM) | level (log10) ([1]; 60000 nM) | level (log10) ([2]; 6700 nM) | level (log10) ([2]; 20000 nM) | level (log10) ([2]; 60000 nM) | level (log10) ([3]; 6700 nM) | level (log10) ([3]; 20000 nM) | level (log10) [4] | level (log10) ([5]; 6700 nM) | level (log10) ([5]; 20000 nM) | level (log10) ([5]; 60000 nM) | level (log10) ([6]; 6700 nM) | level (log10) ([6]; 20000 nM) | level (log10) ([6]; 60000 nM) | level (log10) ([7]; 6700 nM) | level (log10) ([7]; 20000 nM) | level (log10) ([7]; 60000 nM)
LPS:CD62E/E-Selectin | 0.0235 ± 0.06 | 0.033 ± 0.02 | 0.082 ± 0.025 | 0.002 ± 0.023 | -0.008 ± 0.0057 | 0.0085 ± 0.022 | -0.009 ± 0.013 | -0.01 ± 0.0085 | -0.014 ± 0.016 | -0.013 ± 0.021 | -0.025 ± 0.0071 | -0.0345 ± 0.005 | 0.004 ± 0.025 | -0.012 ± 0.016 | -0.0165 ± 0.016 | -0.009 ± 0.0099 | -0.007 ± 0.014 | -0.002
SAg:CXCL8/IL-8 | -0.0075 ± 0.076 | -0.009 ± 0.014 | 0.071 ± 0.044 | 0.014 ± 0.018 | 0.01 ± 0.013 | 0.018 ± 0.031 | -0.0165 ± 0.029 | 0.0095 ± 0.036 | -0.021 ± 0.0028 | -0.0225 ± 0.025 | -0.101 ± 0.023 | -0.227 ± 0.084 | -0.0225 ± 0.069 | -0.061 ± 0.072 | -0.209 ± 0.005 | 0.007 ± 0.0085 | 0.005 ± 0.017 | 0.01 ± 0.034
LPS:CD69 | -0.0455 ± 0.06 | -0.035 ± 0.071 | -0.0835 ± 0.049 | 0.0545 ± 0.076 | 0.0595 ± 0.047 | 0.0515 ± 0.064 | -0.0275 ± 0.022 | -0.038 ± 0.013 | -0.0585 ± 0.05 | -0.072 ± 0.02 | -0.0565 ± 0.057 | -0.028 ± 0.09 | -0.0115 ± 0.025 | -0.072 ± 0.035 | -0.095 ± 0.011 | 0.02 ± 0.11 | 0.0405 ± 0.12 | 0.0255 ± 0.086
SAg:CD62E/E-Selectin | 0.0085 ± 0.042 | 0.0465 ± 0.013 | 0.109 ± 0.0042 | -0.0095 ± 0.077 | 0.0125 ± 0.053 | 0.0285 ± 0.029 | -0.01 ± 0.03 | 0.0315 ± 0.039 | 0.034 ± 0.038 | -0.096 ± 0.0071 | -0.192 ± 0.032 | -0.459 ± 0.11 | -0.009 ± 0.042 | -0.0455 ± 0.0078 | -0.276 ± 0.062 | -0.01 ± 0.0028 | -0.0145 ± 0.037 | -0.0125 ± 0.037
SAg:Proliferation | -0.02 ± 0.054 | -0.0085 ± 0.011 | -0.0735 ± 0.0035 | -0.021 ± 0.016 | -0.0095 ± 0.0092 | -0.0065 ± 0.059 | 0.0075 ± 0.056 | 0.0035 ± 0.0092 | 0.0125 ± 0.059 | 0.004 ± 0.0085 | -0.0715 ± 0.022 | -0.462 ± 0.032 | -0.0355 ± 0.074 | -0.0455 ± 0.00071 | -0.126 ± 0.016 | -0.0095 ± 0.0021 | 0 ± 0.018 | -0.009 ± 0.0014
SAg:PBMC Cytotoxicity | -0.0125 ± 0.015 | 0 ± 0.0042 | 0.0075 ± 0.0021 | 0.0085 ± 0.0064 | -0.0165 ± 0.042 | 0.0155 ± 0.00071 | 0.006 ± 0.018 | 0.015 ± 0.013 | 0.006 ± 0.0028 | -0.01 ± 0.0028 | -0.021 ± 0.016 | 0.002 ± 0.03 | -0.023 ± 0.034 | 0.008 ± 0.016 | -0.002 ± 0.033 | 0.046 ± 0.038 | -0.007 ± 0.024 | 0.019 ± 0.0028
BF4T:CD90 | -0.008 ± 0.0028 | -0.018 ± 0.0014 | -0.0355 ± 0.0092 | 0.005 ± 0.0042 | -0.0075 ± 0.0035 | -0.006 | -0.0095 ± 0.0035 | -0.045 ± 0.0028 | -0.016 ± 0.0028 | -0.0205 ± 0.011 | -0.022 ± 0.0042 | -0.0235 ± 0.019 | -0.005 ± 0.0042 | -0.03 ± 0.0014 | -0.071 ± 0.0085 | -0.009 ± 0.011 | -0.006 ± 0.0099 | 0 ± 0.0028
BT:sIL-6 | 0.015 ± 0.035 | 0.0445 ± 0.015 | -0.005 ± 0.085 | 0.013 ± 0.083 | 0.021 ± 0.016 | -0.102 ± 0.14 | 0.0215 ± 0.016 | 0.0145 ± 0.0092 | 0.0325 ± 0.019 | 0.035 ± 0.037 | -0.0575 ± 0.026 | -0.182 ± 0.018 | -0.025 ± 0.014 | -0.101 ± 0.048 | -0.302 ± 0.017 | 0.042 ± 0.089 | 0.0225 ± 0.071 | -0.061 ± 0.038
